Test results from the NIST ThermoML archive (doi:10.1016/j.jct.2016.03.021).

Assay: wn = mass fraction of the nth substance listed
Conditions: 333.15 K, Liquid; for mass density: Vibrating tube method

CN(CCO)CCO [N-methyldiethanolamine] + O
viscosity [mPa·s]
Conditions | w1 = 0.1 | w1 = 0.2 | w1 = 0.2002 | w1 = 0.3 | w1 = 0.4
93 kPa, Concentric cylinders viscometry | 0.6344 | 0.8719 | – | 1.276 | 1.82
100 kPa, Falling or rolling sphere viscometry | 0.624 | 0.872 | 0.872 | 1.271 | 1.843
5000 kPa, Falling or rolling sphere viscometry | 0.627 | – | 0.876 | 1.278 | 1.861
10000 kPa, Falling or rolling sphere viscometry | 0.63 | – | 0.881 | 1.286 | 1.88
20000 kPa, Falling or rolling sphere viscometry | 0.634 | – | 0.89 | 1.302 | 1.921
30000 kPa, Falling or rolling sphere viscometry | 0.638 | – | 0.898 | 1.316 | 1.956
40000 kPa, Falling or rolling sphere viscometry | 0.643 | – | 0.907 | 1.332 | 1.992
60000 kPa, Falling or rolling sphere viscometry | 0.652 | – | 0.924 | 1.367 | 2.063

mass density [kg/m3]
Conditions | w1 = 0.1 | w1 = 0.2002 | w1 = 0.3 | w1 = 0.4
100 kPa | 990.5 | 997.8 | 1005.4 | 1012.4
500 kPa | 990.6 | 998 | 1005.6 | 1012.7
1000 kPa | 990.8 | 998.2 | 1005.7 | 1012.8
2000 kPa | 991.3 | 998.6 | 1006.2 | 1013.2
5000 kPa | 992.5 | 999.8 | 1007.3 | 1014.4
10000 kPa | 994.6 | 1001.8 | 1009.3 | 1016.4
15000 kPa | 996.6 | 1003.8 | 1011.3 | 1018.4
20000 kPa | 998.6 | 1005.7 | 1013.2 | 1020.3
30000 kPa | 1002.6 | 1009.7 | 1017 | 1024.1
40000 kPa | 1006.7 | 1013.6 | 1020.9 | 1027.9
50000 kPa | 1010.4 | 1017.2 | 1024.3 | 1031.4
60000 kPa | 1014.2 | 1020.9 | 1027.9 | –
